In patent publication US20050074901A1, “Methods and assays for detecting and quantifying the human p53 inducible gene protein” (priority 2002, published 2005):
Like-named read-outs stand apart in the source and are kept apart here.

How the values were obtained:
[1] = system: PIG3; assay: Adriamycin upregulation of PIG3 over time and dose (PIG3 ELISA, FIG. 4A); type: cell-based, human
Excerpt: The invention features a PIG3 ELISA that is a “sandwich” enzyme immunoassay employing two mouse monoclonal antibodies and methods for using the assay. A monoclonal antibody, specific for the human PIG3 protein, is immobilized onto the surface of microtiter wells provided. A kit for the immunoassay, comprising two monoclonal antibodies X1155P and X1156M, is available from Exalpha Biologicals, Inc. in Boston, Mass. As the Frontier Assay Kit. The sample to be assayed and the biotinylated detector monoclonal antibody are pipetted into the wells and allowed to incubate for two hours, during which time any PIG3 present binds to the capture and detecting antibodies. […]
The horseradish peroxidase catalyzes the conversion of the chromogenic substrate tetra-methylbenzidine (TMB) from a colorless solution to a blue solution (or yellow after the addition of stop reagent), the intensity of which is proportional to the amount of PIG3 protein in the sample. The colored reaction product is quantified using a spectrophotometer.
Quantitation is achieved by the construction of a standard curve using known concentrations of PIG3 (provided lyophilized). By comparing the absorbance obtained from a sample containing an unknown amount of PIG3 with that obtained from the standards, the concentration of PIG3 in the sample is determined. […]

[2] = system: PIG3; conditions: cited from earlier work

Compound: COc1cccc2c1C(=O)c1c(O)c3c(c(O)c1C2=O)C[C@@](O)(C(=O)CO)C[C@@H]3O[C@H]1C[C@H](N)[C@H](O)[C@H](C)O1 [Adriamycin, adriamycin]
- PIG3 level [1]: upregulation of PIG3
- PIG3 induction ([2]; cell lines with wild-type p53 genes): strongly induced
- PIG3 induction ([2]; cell with mutant p53): not in the cell with mutant p53
